Measurements taken from patent US6376497B1, “Antifungal azole derivatives having a fluorinated vinyl group and process for preparing same” (Korea Research Institute of Chemical Technology, priority 1999, dated 2002).
≈ marks a conversion by molar mass, not a printed value.

How the values were obtained:
Test in all cases: In vitro antifungal activity, microbroth dilution MIC
Type in all cases: cell-based
[1] = system: Candida tropicalis A. 13803; conditions: 4 to 48 hours; for Minimal inhibitory concentration (MIC): C. tropicalis A. 13803, RPMI-1640, 35° C.
Method in brief: (§1)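 Broth microdilution adapted from NCCLS M27, in RPMI-1640 with 0.165 M MOPS, pH 7.0. Yeast or mould inoculum at 2×10^3 CFU/ml was mixed 1:1 with DMSO-derived compound solutions (200 to 0.10 μg/ml before mixing) and incubated at 35 °C for 4 to 48 h. MIC was the concentration showing no growth.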

[2] = system: Aspergillus furnigatus B. 19119; conditions: for Minimal inhibitory concentration (MIC): A furnigatus B. 19119, RPMI-1640, 35° C., 4 to 48 hours
Method in brief: as §1

[3] = system: Candida albicans C1-2; conditions: 4 to 48 hours; for Minimal inhibitory concentration (MIC): C. albicans C1-2, RPMI-1640, 35° C.
Method in brief: as §1

[4] = system: Cryptococcus neoformans A. 34144; conditions: for Minimal inhibitory concentration (MIC): Cry. neoformans A. 34144, RPMI-1640, 35° C., 4 to 48 hours
Method in brief: as §1

[5] = system: Trichophyton mentagrophytes B. 32663; conditions: for Minimal inhibitory concentration (MIC): T. mentagrophytes B. 32663, RPMI-1640, 35° C., 4 to 48 hours
Method in brief: as §1

[6] = system: Candida parapsitosis A. 7330; conditions: 4 to 48 hours; for Minimal inhibitory concentration (MIC): C. parapsitosis A. 7330, RPMI-1640, 35° C.
Method in brief: as §1

[7] = system: Candida albicans A. 10231; conditions: 4 to 48 hours; for Minimal inhibitory concentration (MIC): C. albicans A. 10231, RPMI-1640, 35° C.
Method in brief: as §1

[8] = system: Candida albicans IFO. 1385; conditions: 4 to 48 hours; for Minimal inhibitory concentration (MIC): C. albicans IFO. 1385, RPMI-1640, 35° C.
Method in brief: as §1

[9] = system: Cryptococcus neoformans IFM. 40092; conditions: for Minimal inhibitory concentration (MIC): Cry. neoformans IFM. 40092, RPMI-1640, 35° C., 4 to 48 hours
Method in brief: as §1

[10] = system: Aspergillus niger A. 16404; conditions: for Minimal inhibitory concentration (MIC): A. niger A. 16404, RPMI-1640, 35° C., 4 to 48 hours
Method in brief: as §1

[11] = system: Candida krusei K. 11655; conditions: 4 to 48 hours; for Minimal inhibitory concentration (MIC): C. krusei K. 11655, RPMI-1640, 35° C.
Method in brief: as §1

[12] = system: Trichophyton mentagrophytes A. 9129; conditions: for Minimal inhibitory concentration (MIC): T. mentagrophytes A. 9129, RPMI-1640, 35° C., 4 to 48 hours
Method in brief: as §1

[13] = system: Torulopsis glabrata B. 16205; conditions: 4 to 48 hours; for Minimal inhibitory concentration (MIC): T. glabrata B. 16205, RPMI-1640, 35° C.
Method in brief: as §1

[14] = system: Candida pseudotropicalis K. 11658; conditions: 4 to 48 hours; for Minimal inhibitory concentration (MIC): C. pseudotropicalis K. 11658, RPMI-1640, 35° C.
Method in brief: as §1

[15] = system: Cryptococcus neoformans B. 42419; conditions: 4 to 48 hours; for Minimal inhibitory concentration (MIC): Cry. neoformans B. 42419, RPMI-1640, 35° C.
Method in brief: as §1

[16] = RPMI-1640, 35° C., no growth observed

COc1cccc(C=C(F)OCC2COC(Cn3ccnc3)(c3ccc(Cl)cc3Cl)O2)c1 (stereo not drawn) [Ex. 8]
Minimal inhibitory concentration (MIC) [1]: 25.0 µg/mL (≈ 52.2 µM) | Minimal inhibitory concentration (MIC) [2]: 6.25 µg/mL (≈ 13 µM) | Minimal inhibitory concentration (MIC) [3]: 25.0 µg/mL (≈ 52.2 µM) | Minimal inhibitory concentration (MIC) [4]: 3.13 µg/mL (≈ 6.53 µM) | Minimal inhibitory concentration (MIC) [5]: 1.56 µg/mL (≈ 3.25 µM) | Minimal inhibitory concentration (MIC) [6]: 12.5 µg/mL (≈ 26.1 µM) | Minimal inhibitory concentration (MIC) [7]: 12.5 µg/mL (≈ 26.1 µM) | Minimal inhibitory concentration (MIC) [8]: 1.56 µg/mL (≈ 3.25 µM) | Minimal inhibitory concentration (MIC) [9]: 0.78 µg/mL (≈ 1.63 µM) | Minimal inhibitory concentration (MIC) [10]: 6.25 µg/mL (≈ 13 µM) | Minimal inhibitory concentration (MIC) [11]: 6.25 µg/mL (≈ 13 µM) | Minimal inhibitory concentration (MIC) [12]: 3.13 µg/mL (≈ 6.53 µM) | Minimal inhibitory concentration (MIC) [13]: 6.25 µg/mL (≈ 13 µM) | Minimal inhibitory concentration (MIC) [14]: 12.5 µg/mL (≈ 26.1 µM) | Minimal inhibitory concentration (MIC) [15]: 1.56 µg/mL (≈ 3.25 µM)

FC(=Cc1ccc(F)cc1)OCC1COC(Cn2ccnc2)(c2ccc(F)cc2F)O1 (mixture of isomers) [Ex. 49]
Minimal inhibitory concentration (MIC) [1]: 50.0 µg/mL | Minimal inhibitory concentration (MIC) [2]: 1.56 µg/mL | Minimal inhibitory concentration (MIC) [3]: 25.0 µg/mL | Minimal inhibitory concentration (MIC) [4]: 0.78 µg/mL | Minimal inhibitory concentration (MIC) [5]: ≦0.10 μg/ml | Minimal inhibitory concentration (MIC) [6]: 25.0 µg/mL | Minimal inhibitory concentration (MIC) [7]: 25.0 µg/mL | Minimal inhibitory concentration (MIC) [8]: 0.20 µg/mL | Minimal inhibitory concentration (MIC) [9]: ≦0.10 μg/ml | Minimal inhibitory concentration (MIC) [10]: 6.25 µg/mL | Minimal inhibitory concentration (MIC) [11]: 25.0 µg/mL | Minimal inhibitory concentration (MIC) [12]: 0.39 µg/mL | Minimal inhibitory concentration (MIC) [13]: 12.5 µg/mL | Minimal inhibitory concentration (MIC) [14]: 12.5 µg/mL | Minimal inhibitory concentration (MIC) [15]: 0.78 µg/mL

Cc1cc(C)cc(C(=C(F)N2CCN(c3ccc(OCC4COC(Cn5ccnc5)(c5ccc(F)cc5F)O4)cc3)CC2)C(F)(F)F)c1 (mixture of isomers) [Ex. 141]
Minimal inhibitory concentration(MIC), C. tropicalis A. 13803 [1, 16]: >100 µg/mL | Minimal inhibitory concentration(MIC), A furnigatus B. 19119 [2, 16]: 50.0 µg/mL | Minimal inhibitory concentration(MIC), C. albicans C1-2 [3, 16]: >100 µg/mL | Minimal inhibitory concentration(MIC), Cry. neoformans A. 34144 [4, 16]: 1.56 µg/mL | Minimal inhibitory concentration(MIC), T. mentagrophytes B. 32663 [5, 16]: 0.78 µg/mL | Minimal inhibitory concentration(MIC), C. parapsitosis A. 7330 [6, 16]: 1.56 µg/mL | Minimal inhibitory concentration(MIC), C. albicans A. 10231 [7, 16]: >100 µg/mL | Minimal inhibitory concentration(MIC), C. albicans IFO. 1385 [8, 16]: 0.78 µg/mL | Minimal inhibitory concentration(MIC), Cry. neoformans IFM. 40092 [9, 16]: 0.78 µg/mL | Minimal inhibitory concentration(MIC), A. niger A. 16404 [10, 16]: >100 µg/mL | Minimal inhibitory concentration(MIC), C. krusei K. 11655 [11, 16]: 1.56 µg/mL | Minimal inhibitory concentration(MIC), T. mentagrophytes A. 9129 [12, 16]: 6.25 µg/mL | Minimal inhibitory concentration(MIC), T. glabrata B. 16205 [13, 16]: 100 µg/mL | Minimal inhibitory concentration(MIC), C. pseudotropicalis K. 11658 [14, 16]: 3.13 µg/mL | Minimal inhibitory concentration(MIC), Cry. neoformans B. 42419 [15, 16]: 0.78 µg/mL

Cc1ccc(C=C(F)OCC2COC(Cn3ccnc3)(c3ccc(Cl)cc3Cl)O2)cc1 (stereo not drawn) [Ex. 3]
Minimal inhibitory concentration (MIC) [1]: 25.0 µg/mL (≈ 54 µM) | Minimal inhibitory concentration (MIC) [2]: 3.13 µg/mL (≈ 6.76 µM) | Minimal inhibitory concentration (MIC) [3]: 25.0 µg/mL (≈ 54 µM) | Minimal inhibitory concentration (MIC) [4]: 0.39 µg/mL (≈ 0.842 µM) | Minimal inhibitory concentration (MIC) [5]: 1.56 µg/mL (≈ 3.37 µM) | Minimal inhibitory concentration (MIC) [6]: 6.25 µg/mL (≈ 13.5 µM) | Minimal inhibitory concentration (MIC) [7]: 12.5 µg/mL (≈ 27 µM) | Minimal inhibitory concentration (MIC) [8]: 0.78 µg/mL (≈ 1.68 µM) | Minimal inhibitory concentration (MIC) [9]: 1.56 µg/mL (≈ 3.37 µM) | Minimal inhibitory concentration (MIC) [10]: 3.13 µg/mL (≈ 6.76 µM) | Minimal inhibitory concentration (MIC) [11]: 6.25 µg/mL (≈ 13.5 µM) | Minimal inhibitory concentration (MIC) [12]: 1.56 µg/mL (≈ 3.37 µM) | Minimal inhibitory concentration (MIC) [13]: 3.13 µg/mL (≈ 6.76 µM) | Minimal inhibitory concentration (MIC) [14]: 6.25 µg/mL (≈ 13.5 µM) | Minimal inhibitory concentration (MIC) [15]: 3.13 µg/mL (≈ 6.76 µM)
